“Also recorded” adds a separate entry of the source. Where a SMILES comes first, the peptide text is derived from it. The star is where a group is joined. Cbz = O=C(OCc1ccccc1)*; CH2F = FC*
How the values were obtained:
[1] = tested on: Fas, caspase 8, caspase 3; assay: Western blot of Fas, cleaved caspase 8 and cleaved caspase 3 in BMMSCs; assay type: cell-based, mouse; conditions: for cleaved caspase 3 in IFN-γ/TNF-α-treated BMMSCs / cleaved caspase 8 in IFN-γ/TNF-α-treated BMMSCs: siRNA or inhibitor treatment before IFN-γ/TNF-α
Method: Western blot analysis. Total protein was extracted using M-PER mammalian protein extraction reagent (Thermo, Rockford, Ill.). Nuclear protein was obtained using NE-PER nuclear and cytoplasmic extraction reagent (Thermo). Protein was applied and separated on 4-12% NuPAGE gel (Invitrogen) and transferred to Immobilon™-P membranes (Millipore). The membranes were blocked with 5% non-fat dry milk and 0.1% tween-20 for 1 hour, followed by incubation with the primary antibodies (1:20¬1000 dilution) at 4° C. overnight. Horseradish peroxidase-conjugated IgG (Santa Cruz Biosciences; 1:10,000) was used to treat the membranes for 1 hour, and enhanced with a SuperSignal® West Pico Chemiluminescent Substrate (Thermo). The bands were detected on BIOMAX MR films (Kodak, Rochester, N.Y.). Each membrane was also stripped using a stripping buffer (Thermo) and reprobed with anti-β-actin antibody to quantify the amount of loaded protein.
(§1) SiRNAs for Fas, TNFR2, IKK, FLIP and XIAP were used to treat the BMMSCs according to the manufacture's instruction, and IFN-γ and TNF-α were added for 24 hrs. Inhibitors for internalization (Latrunculin A, 0.2 μM), pan caspase (Z-VAD (OMe)-FMK, 50 μM), caspase 8 ([…], 20 μM) and caspase 3 (Z-DEVD-FMK, 20 µM) were used to treat the BMMSCs at 4 hrs before IFN-γ and TNF-α were added. Cell apoptosis were analysis by immunofluorescence staining and FACS^Calibur (Annexin V-PE apoptosis detection kit I) and Western blot analysis for caspase 8, cleaved caspase 8, caspase 3 and cleaved caspase 3.

Fas = Fas internalization (immunocytochemical staining); assay type: cell-based, mouse; conditions: caspase inhibitor in IFN-γ/TNF-α-treated BMMSCs vs control group
Method: as §1
Fas internalization. P1 BMMSCs were seeded to 2-well chamber slide. IFN-γ (50 ng/ml) was added to pre-treat BMMSCs for 24 hours, and then TNF-α (20 ng/ml) was added. At the 0.5, 1, 2, 4 hours after TNF-α was added, the cells were washed by PBS twice, and fixed with 4% PFA for 15 min. After treated by Triton-X 15 min, the cells were blocked with normal serum matched to secondary antibodies, incubated with 1 μg/ml anti-Fas (Santa Cruz) antibody at room temperature for 2 hours, treated with Rhodamin-conjugated secondary antibodies (1:200, Jackson ImmunoResearch). Then the cells were incubated with ([…] (1:40; Invitrogen) at room temperature for 20 min, and were mounted by vectashield mounting medium DAPI (Vector Laboratories).

BMMSCs [2] = assay: siRNA and inhibitors: IFN-γ/TNF-α-induced BMMSC death; assay type: cell-based, mouse; conditions: siRNA or inhibitor treatment before IFN-γ/TNF-α, toluidine blue staining
Method: as §1

[3] = tested on: BMMSC-mediated bone formation; assay: BMMSC-mediated bone formation, subcutaneous BMMSC/HA/TCP implantation; assay type: in vivo; conditions: 200 ng cytokine in hydrogel co-implanted with BMMSCs/HA/TCP, immunocompromised mice, 8 weeks post implantation
Method: BMMSC-mediated bone formation. Approximately 4.0×10^6 BMMSCs were mixed with hydroxyapatite/tricalcium phosphate (HA/TCP) ceramic particles (40 mg, Zimmer Inc., Warsaw, Ind.) as a carrier and subcutaneously implanted into the dorsal surface of 8-10 weeks old immunocompromised mice or C57BL/6J mice. At eight weeks post-implantation, the implants were harvested, fixed in 4% paraformaldehyde and then decalcified with 5% EDTA (pH 7.4), followed by paraffin embedding. The 6 μm paraffin sections were stained with hematoxylin and eosin (H&E) and analyzed by an NIH Image J. Five fields were selected and newly formed mineralized tissue area in each field was calculated and shown as a percentage to total tissue area.
Cytokines in BMMSC-mediated bone formation. Approximately 4.0×10^6 of littermate-derived or autologous BMMSCs were mixed with HA/TCP ceramic powders (40 mg, Zimmer Inc.), and hydrogel (Glycosan Biosysterms, Salt Lake City, Utah) with 200 ng IFN-γ, TNF-α, IL-4, IL-6 or IL-17A were covered on the surface of the implants as a slow released system. At eight weeks post-implantation, the implants were harvested and newly formed mineralized tissue areas were analyzed. […]
BMMSC-mediated bone formation. Approximately 4.0×10^6 of littermate-derived or autologous BMMSCs were mixed with hydroxyapatite/tricalcium phosphate (HA/TCP) ceramic particles (40 mg, Zimmer Inc., Warsaw, Ind.) as a carrier and subcutaneously implanted into the dorsal surface of 8-10 weeks old immunocompromised mice or C57BL6 mice. When aspirin was used, BMMSCs were treated with 50 μg/ml aspirin for 2 days and mixed with HA/TCP particles to be subcutaneously implanted into immunocompromised mice. When IFN-γ and TNF-α were used in the subcutaneous implants, 200 ng IFN-γ, TNF-α or/and 100 μg aspirin mixed with 250 μl hydrogel as a slow released system and subcutaneously co-implanted to the dorsal surface of 8-10 weeks old immunocompromised mice.
At eight weeks post-implantation, the implants were harvested, fixed in 4% paraformaldehyde and then decalcified with 5% EDTA (pH 7.4), followed by paraffin embedding. The 6 μm paraffin sections were stained with hematoxylin and eosin (H&E) and analyzed by an NIH Image J. Five fields were selected and newly formed mineralized tissue area in each field was calculated and shown as a percentage to total tissue area.

GFP^+ BMMSCs = assay: Cell survival assay, subcutaneous GFP+ BMMSC implantation; assay type: in vivo, mice; conditions: TNF-α 50 ng/ml, immunocompromised mice, 30 days post implantation, vs untreated control
Method: Cell survival assay. 4×10^6 BMMSCs isolated from C57BL/6-Tg (CAG-EGFP)1Osb/J mice were combined with different concentrations of IFN-γ (0, 20, 50, 100, 200 ng/ml) and TNF-α (0, 20, 50, 100, 200 ng/ml) and subcutaneously transplanted into immunocompromised mice, hydrogel was used as a slowly released carrier. Thirty days after translation, the implants were harvested and digested in a solution of 3 mg/mL collagenase type I (Worthington Biochem) and 4 mg/mL dispase (Roche) for 1 h at 37° C. Single-cell suspensions were obtained by passing the cells through a 70 μm strainer (BD Bioscience). 1.0-1.5×10^6 BMMSCs were seeded into 100 mm culture dishes (Corning) and incubated for 48 hours under 37° C. at 5% CO2 condition. To eliminate the non-adherent cells, the cultures were washed with PBS twice. The attached cells were cultured for 10 days with alpha minimum essential medium (α-MEM, Invitrogen) supplemented with 20% FBS, 2 mM L-glutamine (Invitrogen), 55 μM 2-mercaptoethanol (Invitrogen), 100 U/ml penicillin, and 100 μg/ml streptomycin (Invitrogen). The numbers of GFP positive cells were counted under fluorescent microscopy.

BMMSCs [4] = assay: Cell apoptosis and cell survival assay in vitro (toluidine blue, Annexin V); conditions: TNF-α 0, 5, 50, 100 ng/ml, flow cytometric analysis
Method: Cell apoptosis and cell survival assay. 0.5×10^6 BMMSCs were seeded to 6-well culture plate and co-cultured with different doses of recombined IL-4, IL-6, IL-17A, TGF-β1, TNF-α and IFN-γ (0, 10, 20, 50, 100, 200 ng/ml) for 3 days. To measure the cell viability, the total cells were analyzed by using a cell counting kit-8 (Dojindo Molecular Technoloies, Gaithersburg, Md.) according to the manufacture's instruction. And the culture plates with cells were stained with 2% toluidine blue O and 2% paraformaldehyde (Sigma-Aldrich Corporate, St. Louis, Mo.).
For cell apoptosis analysis, the BMMSCs were stained by Annexin V-PE apoptosis detection kit I (BD Bioscience) following manufacture's protocol, and analyzed by FACS^Calibur (BD Bioscience).
IFN-γ and TNF-α synergism for apoptosis. For cell apoptosis staining, the 1×10^4 BMMSCs were seeded onto two chambers slide, IFN-γ (50 ng/ml) and TNF-α (20 ng/ml) were used to treat the BMMSCs for 24 hrs either separately or combined, Annexin V-PE apoptosis detection kit I (BD Bioscience) was used to stain the BMMSCs following manufacture's protocol, and analyzed on microscopy and FACS^Calibur (BD Bioscience). Cell viability was analyzed by using cell counting kit, and culture plates were stained with 2% toluidine blue O and 2% paraformaldehyde.
IFN-γ and TNF-α synergism for apoptosis. 0.5×10^6 BMMSCs were seeded to 6-well culture plate and co-cultured with different doses of TNF-α (0, 5, 50, 100 ng/ml) with or without IFN-γ (50 ng/ml) for I day. Then, the BMMSCs were stained by Annexin V-PE apoptosis detection kit I (BD Bioscience) following manufacture's protocol, and analyzed by FACS^Calibur (BD Bioscience).

[5] = wild type BMMSCs, IFN-γ 50 ng/ml, TNF-α 20 ng/ml, alone or co-stimulated

| Compound | cleaved caspase 3 in IFN-γ/TNF-α-treated BMMSCs [1] | cleaved caspase 8 in IFN-γ/TNF-α-treated BMMSCs [1] | number of BMMSCs with Fas internalization (Fas) | IFN-γ/TNF-α-induced BMMSC death (BMMSCs [2]) | new bone formation in BMMSC implants [3] | numbers of surviving BMMSCs in implants (GFP^+ BMMSCs) | Fas expression [1, 5] | activation of caspase 3 and caspase 8 [1, 5] | BMMSC apoptosis (BMMSCs [4]) |
| --- | --- | --- | --- | --- | --- | --- | --- | --- | --- |
| COC(=O)CC[C@H](NC(=O)[C@H](CC(=O)OC)NC(=O)OCc1ccccc1)C(=O)N[C@H](C(=O)N[C@@H](CC(=O)OC)C(=O)CF)C(C)C [Caspase 3 inhibitor, Z-DEVD-FMK] | partially inhibition | no inhibitive effect | reduced number of Fas internalization | rescuing IFN-γ/TNF-α-induced BMMSC death | – | – | – | – | – |
| CC[C@H](C)[C@H](NC(=O)OCc1ccccc1)C(=O)N[C@@H](CCC(=O)OC)C(=O)N[C@H](C(=O)N[C@@H](CC(=O)OC)C(=O)CF)[C@@H](C)O [Caspase 8 inhibitor, 2-IETD-FMK] (Cbz-IE(OMe)TD(OMe)-CH2F) | reduce levels | reduce levels | reduced number of Fas internalization | rescuing INF-γ/TNF-α-induced cell death | – | – | – | – | – |
| TNF-α | – | – | – | – | very limited bone formation; also recorded: inhibited subcutaneous bone formation; also recorded: reduced BMMSC-mediated bone formation; also recorded: significantly reduced bone formation | marked reduction in the numbers of survived BMMSCs; also recorded: significant reduction in the numbers of surviving cells | slightly increase | slightly increase | dose-dependent BMMSC apoptosis |
